The subject of this assay is fighting behaviour of isolated mice. Briefly: test on antiagressive activity in isolated mice. It counts as in vivo. To be noted: Mus musculus, po, 1 h; male albino mice kept isolated for 4 weeks; administered orally; fighting behaviour evaluated sixty minutes after administration; 5 mice per dose. As for the experimental part:
The ED50-values mentioned in the table were determined in a test on antiagressive activity in isolated mice (Advances in Pharmacol. 5, (1967), 79). In this test, male albino mice were kept isolated for a period of 4 weeks and then selected for the test on the basis of fighting behaviour present. The selection criterion is the occurrence of 3 or more fighting periods within 3 minutes after a mouse which has not been kept isolated has been placed in the cage of the mouse kept isolated. The compounds to be investigated were administered orally to the selected mice. Per dose 5 mice were used. Sixty minutes after the administration of the compound to be investigated the animals were evaluated again for fighting behaviour. […] The ED50-value in mg of active substance per kg of body weight was calculated from the results obtained.

The structures appear in SMILES notation.

With `NC(=O)NCC[N+]1([O-])CCN(c2cccc(C(F)(F)F)c2)CC1` [R4=NH2, R5=H, R6=3-CF3, T=O, m=1, p=2, 1-[2-(N-aminocarbonylamino)ethyl]-4-(3-trifluoromethylphenyl) piperazine 1-oxide], the 50% effect level (ED50) was put at a dose of 1.9 mg/kg.

`NC(=O)NCCN1CCN(c2cccc(C(F)(F)F)c2)CC1` [R4=NH2, R5=H, R6=3-CF3, T=O, m=0, p=2, 1-[2-(N-aminocarbonylamino)ethyl]-4-(3-trifluoromethylphenyl) piperazine] registered a 50% effective dose (ED50) of 1.3 mg/kg.

The compound `NC(=O)NC(=O)NCCN1CCN(c2cccc(Cl)c2)CC1` [R4=NH2CONH, R5=H, R6=3-Cl, T=O, m=0, p=2] had an ED50 of 2.3 mg/kg.

`CC(=O)NCCN1CCN(c2ccccc2)CC1` [US pat. spec. 2.722.529 ex.12, reference compound] registered an ED50 of 15 mg/kg. This ED50 lies about 6.5-fold higher than the previous one.

In the case of `NC(=O)NC(=O)NCCN1CCN(c2cccc(C(F)(F)F)c2)CC1` [1 [-2-(N-allophanoylamino)ethyl]-4-(3-trifluoromethylphenyl)piperazine], it took a dose of 1.5 mg/kg to reach the 50% effect level (ED50).

Compound `O=CNCCN1CCN(c2cccc(Cl)c2)CC1` [R4=H, R5=H, R6=3-Cl, T=O, m=0, p=2, 1-[2-(N-formylamino)ethyl]-4-(3-chlorophenyl)piperazine] showed an ED50 of 1.5 mg/kg.

On to `COC(=O)NCCN1CCN(c2cccc(Cl)c2)CC1.Cl.Cl` [R4=CH3O, R5=H, R6=3-Cl, T=O, m=0, p=2, 1-[2-(N-methoxycarbonylamino)ethyl]-4-(3-chlorophenyl)piperazine dihydrochloride], for which the ED50 is 3.5 mg/kg.

As to `CCN(CCN1CCN(c2cccc(C(F)(F)F)c2)CC1)C(C)=O` [R4=CH3, R5=C2H5, R6=3-CF3, T=O, m=0, p=2, 1-[2-(N-acetyl-N-ethylamino)ethyl]-4-(3-trifluoromethylphenyl) piperazine], it took a dose of 3.2 mg/kg to reach the 50% effect level (ED50).

Turning to `CC(=O)NCCN1CCN(c2cccc(Br)c2)CC1` [R4=CH3, R5=H, R6=3-Br, T=O, m=0, p=2, 1-[2-(N-acetylamino)ethyl]-4-(3-bromophenyl)piperazine], the ED50 was determined as 2.6 mg/kg.

Take `CC(=S)NCCN1CCN(c2cccc(C(F)(F)F)c2)CC1.Cl` [R4=CH3, R5=H, R6=3-CF3, T=S, m=0, p=2, 1-[2-(N-thioacetylamino)ethyl]-4-(3-trifluoromethylphenyl)piperazine hydrochloride]: the ED50 was found to be 1.6 mg/kg.

As for `COC(=O)NCCN1CCN(c2cccc(C(F)(F)F)c2)CC1.Cl` [R4=CH3O, R5=H, R6=3-CF3, T=O, m=0, p=2, 1-[2-(N-methoxycarbonylamino)ethyl]-4-(3-trifluoromethylphenyl) piperazine hydrochloride], it took a dose of 0.6 mg/kg to reach the 50% effect level (ED50).

For `CC(=O)NCCN1CCN(c2ccccc2Cl)CC1` [US pat. spec. 2.833.770, reference compound], the 50% effect level (ED50) was put at a dose of 18 mg/kg.

`CC(=O)N(C)CCN1CCN(c2cccc(C(F)(F)F)c2)CC1.Cl` [R4=CH3, R5=CH3, R6=3-CF3, T=O, m=0, p=2, 1-[2-(N-acetyl-N-methylamino)ethyl]-4-(3-trifluoromethylphenyl) piperazine hydrochloride (1:1)] had an ED50 of 0.9 mg/kg.

Compound `CC(=O)NCCN1CCN(c2cccc(C(F)(F)F)c2)CC1` [R4=CH3, R5=H, R6=3-CF3, T=O, m=0, p=2, 1-[2-(N-acetylamino)ethyl]-4-(3-trifluoromethylphenyl)piperazine] had an ED50 of 0.7 mg/kg.

Regarding `Cl.O=CNCCN1CCN(c2cccc(C(F)(F)F)c2)CC1` [R4=H, R5=H, R6=3-CF3, T=O, m=0, p=2, 1-[2-(N-formylamino)ethyl] -4-(3-trifluoromethylphenyl)piperazine hydrochloride], the ED50 is 1.7 mg/kg.

On to `CC(=O)NCCN1CCN(c2cccc(Cl)c2)CC1` [R4=CH3, R5=H, R6=3-Cl, T=O, m=0, p=2, 1-[2-(N-acetylamino)ethyl]-4-(3-chlorophenyl)piperazine], for which it took a dose of 1.8 mg/kg to reach the 50% effect level (ED50).

`NC(=O)NCCN1CCN(c2cccc(Cl)c2)CC1` [R4=NH2, R5=H, R6=3-Cl, T=O, m=0, p=2, 1-[2-(N-aminocarbonylamino)ethyl]-4-(3-chlorophenyl)piperazine] registered an ED50 of 2.3 mg/kg.

Consider `CC(=O)NCC[N+]1([O-])CCN(c2cccc(C(F)(F)F)c2)CC1` [R4=CH3, R5=H, R6=3-CF3, T=O, m=1, p=2, 1-[2-(N-acetylamino)ethyl]-4-(3-trifluoromethylphenyl)piperazine 1-oxide], for which it took a dose of 1.5 mg/kg to reach the 50% effect level (ED50). Compared with the last compound, the ED50 is about 1.5-fold lower.

Source of the values: patent EP0015615A1, “Phenyl piperazine derivatives, their preparation and antiagressive medicines containing them” (DUPHAR INTERNATIONAL RESEARCH B.V, priority 1979, dated 1980).
